Measured values published in the supplement of paper PMC10981050.

How the values were obtained:
Test in all cases: cell viability relative to vehicle control; higher = less cytotoxic
Settings in all cases: SRSF2 genotype: SRSF2 WT
OCI-AML2 = system: OCI-AML2
Method: (§1)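 Isogenic SRSF2 WT and CRISPR SRSF2 P95 mutant clones of MOLM14, OCI-AML2 and MARIMO were exposed to ROCK inhibitors at 7 doses (0.037 to 29.9 µM) for 48 h. Viability was read by CellTiter-Glo luminescence and normalised to the vehicle control on each plate (%).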

MARIMO = system: MARIMO
Method: as §1

MOLM14 = system: MOLM14
Method: as §1

O=C(NCc1cccc(O)c1)Nc1nc(-c2ccncc2)cs1 [RKI-1447]
cell viability [%]
Settings | 0.037 µM | 0.129 µM | 0.369 µM | 0.997 µM | 3.49 µM | 9.97 µM | 29.9 µM
MARIMO | 102 | 101 | 101 | 98.4 | 94.49 | 75.9 | 20.3
MOLM14 | 97 | 80.3 | 70.7 | 66.31 | 60.68 | 33 | 1.24
OCI-AML2 | 98.1 | 73.5 | 44.7 | 34.5 | 27.9 | 22.8 | 4.32
